From US20230191096A1, “PHARMACEUTICAL COMPOSITION FOR USE IN TREATING SUBJECT IN HYPOXIC STATE DUE TO RESPIRATORY FAILURE, ETC” (National University Corporation Tokyo Medical and Dental …, priority 2020, published 2023)
One block for each molecule: values may come before it.

Legend:
C57BL6J mice = test: Intrarectal oxygenated perflubron in mice having respiratory failure, SpO2 monitor; format: in vivo; conditions: 15% hypoxic condition; 40 mL/kg into the rectum
Protocol: Experiment was carried out to administer oxygenated perflubron to mice having respiratory failure. PFB manufactured by OriGen Biomedical (Perflubron, product name: Liquivent) was oxygenated by oxygen bubbling. Male C57BL6J mice (male) ranging from 20 to 30 g were grouped into two groups: control group (physiological saline administration group); and I-EVA group (using oxygenated perflubron). The mice of the control group were each anesthetized by intraperitoneal administration of ketamine (80 to 100 mg/kg) and xylazine (10 mg/kg) and subjected to inhalation under 15% hypoxic condition, and, when SpO2 just exceeded 70%, perflubron was administered into the rectum at 40 mL/kg, and effects on respiratory failure were validated by using an SpO2 monitor.

[1] = Oxygen and carbon dioxide partial pressures of the PFB before bubbling, after bubbling and after intrarectal administration; parameters: species or system mice; conditions: after oxygen bubbling vs before
C57BL/6J mice [2] = test: Intestinal liquid ventilation (ILV) with oxygenated PFC, oxygen partial pressure in inferior vena cava; format: in vivo; conditions: 120 min after 1 mL PFC via the intestinal tract
Protocol: (§1) With use of a liquid perfluorocarbon (PFC)^12-16, an intestinal gas ventilation (ILV) system was developed. Mice were randomly assigned to two groups: sham group (group 9, n=10); and intestinal gas ventilation group (group 12, n=12). For the intestinal gas ventilation (ILV), a PFC (octadecafluorodecahydronaphthalene, Wako Pure Chemical Industries, Ltd., Osaka, Japan) was bubbled with pure oxygen for 45 minutes to dissolve oxygen therein.

C57BL/6J mice [3] = test: ILV in respiratory failure model, oxygen partial pressure in left ventricle (FiO2 0.10); format: in vivo
Protocol: In ILV experiment, mice were randomly assigned to two groups: sham group (group 13, n=4); and ILV groups (group 18, n=4; group 19, n=4). The PFC was given to each mouse via the intestinal tract in the above-described manner, and 60 minutes and 120 minutes thereafter the oxygen partial pressure in the left ventricle of the heart under inhalation of hypoxic gas was analyzed (FiO2 0.10, inhalation time: 10 minutes).

C57BL/6J mice [4] = test: Behavior analysis (walking distance) of ILV-treated hypoxic mice; format: in vivo; conditions: per 20 seconds; FiO2 0.10; 120 minutes after injection to the intestinal tract
Protocol: Behavioral improvement in ILV-treated hypoxic mice was analyzed. The mobilities of mice were monitored for a set of two parameters from a fitted ellipse (centroidal positions (x, y)). With use of these parameters, walking distance was calculated every 20 seconds for mice of a control group and a treated group (both n=3). […] For the treated group, an O2-labeled perfluorocarbon was used as described above, and inhalation of hypoxic gas (FiO2 0.10) was performed 120 minutes after the injection to the intestinal tract (FIG. 4A).

[5] = Oxygen partial pressure of PFC bubbled with pure oxygen; format: physicochemical
Protocol: as §1
First, an O2-containing PFC was prepared (by O2 bubbling at 1 L/min over 45 minutes; FIG. 3A). For mice (groups 12, 18, 19; hereinafter, referred to as intestinal gas ventilation (ILV) groups), the liquid of PFC was then infused into the intestinal tract (i.e., the rectum) in a total volume of 1 mL/mouse. The average oxygen pressure in the PFC after O2 bubbling for 45 minutes was 438±19.9 mmHg (n=3, FIG. 4E). Effects on the treated mice were evaluated by mobility assay. In summary, the walking distances of the mice were calculated to find statistical increase for the group with O2—PFC liquid infusion therapy after inhalation of hypoxic gas (the ILV group with administration of the O2-containing PFC) as compared with the control group (FiO2 0.10, control group, 0.408±1.02 cm per 20 seconds; FiO2 0.10, treated group, 3.34±4.05 cm, p<0.0001, FIG. 3B).

LEWIS rats = test: Intrarectal oxygenated perfluorodecalin, blood gas (FIG. 9); format: in vivo; conditions: for blood oxygen partial pressure vs physiological saline: intrarectal 20 mL/kg
Protocol: As an experiment for reproduction, LEWIS rats (male) ranging from 250 to 350 g were grouped into three groups: control group; I-EVA group (using research-grade perfluorodecalin (PFD) from Wako Pure Chemical Industries, Ltd.); and I-EVA group (using clinical-grade perfluorodecalin from F2C). Perfluorodecalin bubbled with pure oxygen gas was administered into the rectum of each rat at 20 mL/kg, and 15 minutes and 120 minutes thereafter the arterial blood was collected under anesthesia and 21% oxygen inhalation, and the oxygen partial pressure was measured.
Next, C57BL6J mice ranging from 20 to 30 g were grouped into two group: control group (physiological saline administration group); and I-EVA group (using perfluorodecalin from F2C with oxygenation). The mice of the control group were each anesthetized by intraperitoneal administration of ketamine (80 to 100 mg/kg) and xylazine (10 mg/kg) and subjected to inhalation under 15% hypoxic condition, and, when SpO2 just exceeded 70%, oxygenated perfluorodecalin was administered into the rectum at 40 mL/kg, and effects on respiratory failure were validated by using an SpO2 monitor. After the completion of the experiment, the perfluorodecalin enterally administered was recovered, and the carbon dioxide concentration was measured to compare with that measured before the operation.

[6] = tested on: acute respiratory distress syndrome (ARDS) pig model; test: Intrarectal oxygenated PFC in acute respiratory distress syndrome (ARDS) pig model; format: in vivo; conditions: ARDS pigs
Protocol: Furthermore, an acute respiratory distress syndrome (ARDS) pig model was produced, and improvement of oxygen partial pressure by intrarectal administration of oxygenated PFC was examined. First, micromini pigs and pork pigs (female) were used to produce an ARDS model. Physiological saline was directly administered into the airway at 40 mL/kg. […] Histological examination of lung tissue confirmed impairment of alveolar walls such as the formation of hyaline membranes, the formation of residual protein layers in alveolar spaces, and septal hypertrophy. […] Then, the thus-produced ARDS pigs were each subjected to laparotomy by median incision, and a drain for administration of perfluorodecalin was placed at a depth of 40 cm from the anus, and an […] DennisTM Colorectal Tube for recovery of perfluorodecalin was placed in the anus side.

hypoxic pigs = test: Intrarectal oxygenated PFC in hypoxic pigs; format: in vivo; conditions: intrarectal administration
[7] = Blood PFD concentration by GC/MS/MS; format: in vivo; conditions: 0.5 hours, 2 hours, and 24 hours after administration, n=6
Protocol: (§2) The blood PDF concentration 0.5 hours, 2 hours, and 24 hours after administration of perfluorodecalin (PFD) was measured by GC/MS/MS at times (n=6). […] Systemic toxicity after six cycles of administration of PDF was examined.

[8] = Systemic toxicity after six cycles of administration of PFD, analysis of serum; format: in vivo; conditions: for ALP / AST / Albumin / CK / Calcium / Chloride / Creatinine / Erythrocytes / Glucose / Hematocrit / Hemoglobin / Leukocytes / Platelets / Pottasium / Sodium / Total cholesterol / Tri-glyceride / Urea nitrogen / ALT: 6 doses (time/day), blood collection Day 2; for ALT: *p < 0.05
Protocol: as §2

mice = test: Oral administration of PFD subjected to oxygen bubbling, left ventricular blood gas; format: in vivo
Protocol: PFD subjected to oxygen bubbling was administered to mice through oral administration, and the effects on blood oxygen partial pressure and carbon dioxide partial pressure were examined. As a negative control, a mouse group with oral administration of physiological saline ([…]; n=3) was used. […] In the negative control group, in contrast to that, there were smaller amounts of contents in the intestinal tract than in the bubbled-PFD oral administration group (FIG. 14A). An attempt was made to recover contents by inserting a syringe into the intestinal tract. In the attempt, transparent liquid suspected to be PFD was successfully recovered in the syringe for the bubbled-PFD oral administration group (FIG. 14B). For the negative control group, by contrast, such liquid was not recovered, and nothing recovered was left in the syringe. […] One hour after administration, tracheostomy was performed, and ventilation was performed with room air under management with a ventilator. Thoracotomy was performed and blood was collected from the heart, and the oxygen partial pressure and carbon dioxide partial pressure in the blood obtained were measured by iSTAT.

[9] = 120 minutes after administration
[10] = oral 250 μL/mouse, heart blood one hour after administration, room air ventilation

oxygen partial pressure of the PFB [1]: enhanced oxygen partial pressure
SMILES: FC(F)(F)C(F)(F)C(F)(F)C(F)(F)C(F)(F)C(F)(F)C(F)(F)C(F)(F)Br [PFB, 1-bromo-heptadecafluorooctane]
SpO2 (C57BL6J mice): significant recovery of SpO2

average oxygen pressure in the PFC ([5]; after O2 bubbling for 45 minutes (1 L/min), n=3): 438±19.9 mmHg | average pressure of oxygen in the perfluorocarbon ([5]; bubbled with pure oxygen, after 120 minutes): 438±19.9 mmHg | acidosis [6]: did not exhibit marked acidosis | blood PFD concentration (detection limit) [7]: < 1 µg/mL
SMILES: FC1(F)C(F)(F)C(F)(F)C2(F)C(F)(F)C(F)(F)C(F)(F)C(F)(F)C2(F)C1(F)F (stereo not shown) [PFD, octadecafluorodecahydronaphthalene]
oxygen partial pressure in the inferior vena cava, pressure difference ILV group vs control group (C57BL/6J mice [2]): 9.40±3.65 mmHg | ratio of arterial oxygen partial pressure between the control group and the treated group (C57BL/6J mice [3]; FiO2 0.10): approximately 1.6 | ventricular (arterial) oxygen partial pressure, PaO2 (C57BL/6J mice [3]; ILV group, hypoxic environment (FiO2 0.10)): 63.8±5.59 mmHg | oxygen partial pressure in the left ventricle of the heart vs control group (C57BL/6J mice [3]; hypoxic environment (FiO2 0.10), 60 minutes after ILV): significantly higher | oxygen partial pressure in the left ventricle of the heart, pressure difference ILV group vs control group (C57BL/6J mice [3]; hypoxic environment (FiO2 0.10), after 120 minutes): 23.8±3.11 mmHg | walking distance (C57BL/6J mice [4]): 3.34±4.05 cm | blood carbon dioxide partial pressure vs physiological saline (LEWIS rats; [9]): significantly decreasing blood carbon dioxide partial pressure | blood oxygen partial pressure vs physiological saline (LEWIS rats; 15 minutes after administration): enhancing blood oxygen partial pressure | blood oxygen partial pressure vs physiological saline (LEWIS rats; [9]): enhancing blood oxygen partial pressure | oxygen partial pressure, improvement ([6]; oxygenated perfluorodecalin repeatedly at 20 mL/kg intrarectal): about 300 mmHg | blood oxygen partial pressure (hypoxic pigs): improvement in blood oxygen partial pressure | carbon dioxide partial pressure (hypoxic pigs): decrease in carbon dioxide partial pressure | oxygen saturation (hypoxic pigs): improved the oxygen saturation | ALP ([8]; PFD dose volume 1 ml/head): 470 ± 112 U/L | AST ([8]; PFD dose volume 1 ml/head): 68 ± 2 U/L | Albumin ([8]; PFD dose volume 1 ml/head): 2.6 ± 0.1 g/dL | CK ([8]; PFD dose volume 1 ml/head): 170 ± 22 U/L | Calcium ([8]; PFD dose volume 1 ml/head): 10.1 ± 0.1 mg/dL | Chloride ([8]; PFD dose volume 1 ml/head): 103 ± 1 mmol/L | Creatinine ([8]; PFD dose volume 1 ml/head): 0.2 mg/dL | Erythrocytes ([8]; PFD dose volume 1 ml/head): 752 ± 24 ×10^4/μl | Glucose ([8]; PFD dose volume 1 ml/head): 123 ± 22 mg/dL | Hematocrit ([8]; PFD dose volume 1 ml/head): 45.0 ± 1.1% | Hemoglobin ([8]; PFD dose volume 1 ml/head): 15.1 ± 0.7 g/dL | Leukocytes ([8]; PFD dose volume 1 ml/head): 102 ± 18 10^2/μL | Platelets ([8]; PFD dose volume 1 ml/head): 112 ± 11.5 10^4/µL | Pottasium ([8]; PFD dose volume 1 ml/head): 3.6 ± 0.2 mmol/L | Sodium ([8]; PFD dose volume 1 ml/head): 143 mmol/L | Total cholesterol ([8]; PFD dose volume 1 ml/head): 75 ± 20 mg/dL | Tri-glyceride ([8]; PFD dose volume 1 ml/head): 21 ± 7 mg/dL | Urea nitrogen ([8]; PFD dose volume 1 ml/head): 14 ± 2 mg/dL | ALT ([8]; PFD dose volume 1 ml/head): 24 ± 3* U/L | ALP ([8]; PFD dose volume 1.5 ml/head): 540 ± 64 U/L | AST ([8]; PFD dose volume 1.5 ml/head): 72 ± 5 U/L | Albumin ([8]; PFD dose volume 1.5 ml/head): 2.6 ± 0.1 g/dL | CK ([8]; PFD dose volume 1.5 ml/head): 196 ± 12 U/L | Calcium ([8]; PFD dose volume 1.5 ml/head): 9.9 ± 0.3 mg/dL | Chloride ([8]; PFD dose volume 1.5 ml/head): 105 ± 1 mmol/L | Creatinine ([8]; PFD dose volume 1.5 ml/head): 0.3 ± 0.1 mg/dL | Erythrocytes ([8]; PFD dose volume 1.5 ml/head): 791 ± 24 ×10^4/μl | Glucose ([8]; PFD dose volume 1.5 ml/head): 123 ± 18 mg/dL | Hematocrit ([8]; PFD dose volume 1.5 ml/head): 45.6 ± 1.4% | Hemoglobin ([8]; PFD dose volume 1.5 ml/head): 15.2 ± 0.6 g/dL | Leukocytes ([8]; PFD dose volume 1.5 ml/head): 88 ± 5 10^2/μL | Platelets ([8]; PFD dose volume 1.5 ml/head): 124 ± 20.1 10^4/µL | Pottasium ([8]; PFD dose volume 1.5 ml/head): 3.6 ± 0.2 mmol/L | Sodium ([8]; PFD dose volume 1.5 ml/head): 143 ± 1 mmol/L | Total cholesterol ([8]; PFD dose volume 1.5 ml/head): 71 ± 22 mg/dL | Tri-glyceride ([8]; PFD dose volume 1.5 ml/head): 20 ± 4 mg/dL | Urea nitrogen ([8]; PFD dose volume 1.5 ml/head): 14 ± 2 mg/dL | ALT ([8]; PFD dose volume 1.5 ml/head): 25 ± 1* U/L | toxicity due to intrarectal administration ([8]; six cycles of administration, serum analysis): no particular toxicity | gastrointestinal transit after oral administration (mice; oral 250 μL/mouse to the stomach by probe): passed through the stomach and arrived at the intestine | blood carbon dioxide partial pressure vs negative control group (mice; [10]): tendency to exhibit decreased blood carbon dioxide partial pressure | blood oxygen partial pressure vs negative control group (mice; [10]): tendency to exhibit increased blood oxygen partial pressure
